According to the OligoGym collection:
HELM strings list units from the 5' end as sugar, base in round brackets, then linkage (d deoxyribose, r ribose, m 2'-O-methyl, p phosphodiester). Strings are as the collection lists them, not checked against the first reports. ss, as = sense and antisense strand; [lna] = locked nucleic acid (LNA); [una] = unlocked nucleic acid; [s4r] = 4'-thioribose; [fl2r] = 2'-fluoro

Conditions: siRNA
Further: test system not given here.

Substance	target mRNA knockdown
RNA1{r(A)p.r(C)p.r(C)p.r(U)p.m(U)p.r(A)p.r(A)p.r(G)p.r(G)p.r(A)p.r(C)p.m(C)p.r(A)p.r(C)p.r(C)p.r(G)p.r(G)p.r(A)p.r(U)p.r(T)p.r(T)}|RNA2{r(A)p.r(U)p.r(C)p.r(C)p.r(G)p.r(G)p.m(U)p.r(G)p.r(G)p.r(U)p.r(C)p.r(C)p.r(U)p.m(U)p.r(A)p.r(A)p.r(G)p.r(G)p.r(U)p.r(T)p.r(T)}$$$RNA1{StrandType:ss}|RNA2{StrandType:as}$	72%
RNA1{[fl2r](G)p.m(A)p.[fl2r](C)p.m(G)p.[fl2r](U)p.m(A)p.[fl2r](A)p.m(A)p.[fl2r](C)p.m(G)p.[fl2r](G)p.m(C)p.[fl2r](C)p.m(A)p.[fl2r](C)p.m(A)p.[fl2r](A)p.m(G)p.[fl2r](U)p.m(U)p.[fl2r](C)}|RNA2{r(A)p.r(C)p.[lna](T)p.r(U)p.r(G)p.[lna](T)p.r(G)p.r(G)p.r(C)p.r(C)p.r(G)p.r(U)p.r(U)p.[lna](T)p.r(A)p.r(C)p.r(G)p.[lna](T)p.r(C)p.[lna](G)p.[lna](C)}$$$RNA1{StrandType:ss}|RNA2{StrandType:as}$	1.5%
RNA1{r(G)p.r(G)p.r(A)p.r(C)p.r(A)p.r(U)p.r(U)p.r(C)p.r(A)p.r(G)p.r(A)p.r(A)p.r(C)p.r(A)p.r(A)p.r(G)p.r(A)p.r(A)p.r(A)p.[una](U)p.[una](U)}|RNA2{r(U)p.r(U)p.r(U)p.r(C)p.r(U)p.[una](U)p.r(G)p.r(U)p.r(U)p.r(C)p.r(U)p.r(G)p.r(A)p.r(A)p.r(U)p.r(G)p.r(U)p.r(C)p.r(C)p.[una](U)p.[una](U)}$$$RNA1{StrandType:ss}|RNA2{StrandType:as}$	57%
RNA1{r(A)p.r(G)p.r(A)p.r(A)p.r(A)p.r(A)p.r(G)p.r(C)p.r(A)p.r(G)p.r(C)p.r(G)p.r(A)p.m(U)p.r(A)p.r(C)p.r(G)p.r(C)p.r(U)p.r(T)p.r(T)}|RNA2{r(A)p.r(G)p.r(C)p.r(G)p.r(U)p.r(A)p.r(U)p.r(C)p.r(G)p.r(C)p.r(U)p.r(G)p.r(C)p.r(U)p.r(U)p.r(U)p.r(U)p.r(C)p.r(U)p.r(T)p.r(T)}$$$RNA1{StrandType:ss}|RNA2{StrandType:as}$	69%
RNA1{r(A)p.r(C)p.r(G)p.r(G)p.r(C)p.r(U)p.r(C)p.r(G)p.r(C)p.r(U)p.[fl2r](A)p.r(C)p.r(C)p.r(C)p.r(U)p.r(C)p.r(G)p.r(A)p.r(C)p.r(T)p.r(T)}|RNA2{r(G)p.r(U)p.r(C)p.r(G)p.r(A)p.r(G)p.r(G)p.r(G)p.r(U)p.r(A)p.r(G)p.r(C)p.r(G)p.r(A)p.r(G)p.r(C)p.r(C)p.r(G)p.r(U)p.r(T)p.r(T)}$$$RNA1{StrandType:ss}|RNA2{StrandType:as}$	83%
RNA1{[s4r](A)p.[s4r](A)p.[s4r](A)p.[s4r](C)p.r(A)p.r(U)p.r(G)p.r(C)p.r(A)p.r(G)p.r(A)p.r(A)p.r(A)p.r(A)p.r(U)p.[s4r](G)p.[s4r](C)p.[s4r](C)p.[s4r](U)p.r(T)p.r(T)}|RNA2{r(C)p.r(A)p.r(G)p.r(C)p.r(A)p.r(U)p.r(U)p.r(U)p.r(U)p.r(C)p.r(U)p.r(G)p.r(C)p.r(A)p.r(U)p.r(G)p.r(U)p.[s4r](U)p.[s4r](U)p.r(T)p.r(T)}$$$RNA1{StrandType:ss}|RNA2{StrandType:as}$	87.7%
RNA1{m(A)p.r(A)p.m(A)p.r(C)p.m(G)p.r(A)p.m(G)p.r(A)p.m(G)p.r(A)p.m(G)p.r(C)p.m(C)p.r(C)p.m(A)p.r(C)p.m(C)p.r(U)p.m(U)p.r(T)p.r(T)}|RNA2{r(A)p.r(A)p.r(G)p.r(G)p.r(U)p.r(G)p.r(G)p.r(G)p.m(C)p.r(U)p.m(C)p.r(U)p.m(C)p.r(U)p.m(C)p.r(G)p.r(U)p.r(U)p.r(U)p.r(T)p.r(T)}$$$RNA1{StrandType:ss}|RNA2{StrandType:as}$	37%
RNA1{r(C)p.r(G)p.r(A)p.r(A)p.r(A)p.r(G)p.[fl2r](U)p.r(G)p.[fl2r](U)p.r(A)p.r(U)p.r(C)p.r(C)p.r(G)p.r(A)p.r(A)p.r(G)p.r(A)p.r(C)p.r(T)p.r(T)}|RNA2{r(G)p.r(U)p.r(C)p.r(U)p.r(U)p.r(C)p.r(G)p.r(G)p.r(A)p.[fl2r](U)p.r(A)p.[fl2r](C)p.r(A)p.r(C)p.r(U)p.r(U)p.r(U)p.r(C)p.r(G)p.r(T)p.r(T)}$$$RNA1{StrandType:ss}|RNA2{StrandType:as}$	75%
RNA1{m(C)p.r(C)p.m(G)p.r(A)p.m(G)p.r(A)p.m(G)p.r(C)p.m(U)p.r(C)p.m(U)p.r(C)p.m(C)p.r(U)p.m(A)p.r(C)p.m(C)p.r(U)p.m(U)p.r(T)p.r(T)}|RNA2{r(A)p.r(A)p.r(G)p.r(G)p.r(U)p.r(A)p.r(G)p.r(G)p.r(A)p.r(G)p.r(A)p.r(G)p.r(C)p.r(U)p.r(C)p.r(U)p.r(C)p.r(G)p.r(G)p.r(T)p.r(T)}$$$RNA1{StrandType:ss}|RNA2{StrandType:as}$	34%
RNA1{r(A)p.r(G)p.[fl2r](U)p.r(A)p.r(A)p.r(U)p.r(C)p.r(C)p.r(G)p.r(G)p.r(A)p.r(C)p.r(U)p.[fl2r](C)p.r(A)p.r(A)p.r(C)p.r(U)p.r(C)p.r(T)p.r(T)}|RNA2{r(G)p.r(A)p.r(G)p.r(U)p.[fl2r](U)p.r(G)p.r(A)p.r(G)p.r(U)p.r(C)p.r(C)p.r(G)p.r(G)p.r(A)p.r(U)p.[fl2r](U)p.r(A)p.r(C)p.r(U)p.r(T)p.r(T)}$$$RNA1{StrandType:ss}|RNA2{StrandType:as}$	68%
RNA1{m(A)p.r(C)p.m(C)p.r(U)p.m(U)p.r(A)p.m(A)p.r(G)p.m(G)p.r(A)p.m(C)p.r(C)p.m(A)p.r(C)p.m(C)p.r(G)p.m(G)p.r(A)p.m(U)p.r(T)p.r(T)}|RNA2{r(A)p.r(U)p.r(C)p.m(C)p.r(G)p.r(G)p.r(U)p.r(G)p.r(G)p.r(U)p.r(C)p.r(C)p.m(U)p.r(U)p.m(A)p.r(A)p.m(G)p.r(G)p.m(U)p.r(T)p.r(T)}$$$RNA1{StrandType:ss}|RNA2{StrandType:as}$	52%
RNA1{r(C)p.r(U)p.r(U)p.r(A)p.r(C)p.r(G)p.r(C)p.r(U)p.r(G)p.r(A)p.r(G)p.r(U)p.r(A)p.r(C)p.r(U)p.r(U)p.r(C)p.r(G)p.r(A)p.d(T)p.d(T)}|RNA2{r(U)p.r(C)p.r(G)p.r(A)p.r(A)p.r(G)p.r(U)p.r(A)p.r(C)p.[lna](T)p.r(C)p.r(A)p.r(G)p.r(C)p.r(G)p.r(U)p.r(A)p.r(A)p.r(G)p.[lna](T)p.[lna](T)}$$$RNA1{StrandType:ss}|RNA2{StrandType:as}$	52%
